pIC50: −log10 of the molar value.
How the values were obtained:
DU-145 [1] = experiment: Inhibition of the growth of prostate cancer(DU-145) cell line; type: functional; conditions: Homo sapiens
M14 [2] = experiment: Inhibition of the growth of melanoma cancer (M14) cell line at 0.01 uM; type: functional; conditions: Homo sapiens
SR [3] = experiment: Inhibition of the growth of leukemia(SR) cell line. value in parentheses is percent inhibition at 0.01 uM; type: functional; conditions: Homo sapiens
MCF7 = experiment: Inhibition of the growth of breast cancer (MCF-7) cell line; type: functional; conditions: Homo sapiens
SK-MEL-5 [4] = experiment: Inhibition of the growth of melanoma cancer (SK-MEL-5) cell line at 0.01 uM; type: functional; conditions: Homo sapiens
Dihydrofolate reductase [5] = biological target: T1, Dihydrofolate reductase (Pneumocystis carinii, UniProt P16184)
T1 sequence (P16184 whole entry): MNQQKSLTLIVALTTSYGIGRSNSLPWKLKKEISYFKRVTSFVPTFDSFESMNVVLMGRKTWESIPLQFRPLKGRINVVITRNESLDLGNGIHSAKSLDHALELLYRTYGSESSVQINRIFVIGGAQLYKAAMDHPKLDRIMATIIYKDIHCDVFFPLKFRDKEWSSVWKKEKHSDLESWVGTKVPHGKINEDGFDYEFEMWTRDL
Description: Inhibitory activity against dihydrofolate reductase (DHFR) from Pneumocystis carinii

NCI-H322M = experiment: Inhibition of the growth of non-small-cell lung cancer (NCI-H322M) cell line; conditions: Homo sapiens
MOLT-4 = experiment: Inhibition of the growth of leukemia (MOLT-4) cell line.; type: functional; conditions: Homo sapiens
M14 [6] = experiment: Inhibition of the growth of melanoma cancer (M14) cell line; type: functional; conditions: Homo sapiens
NCI-H522 [7] = experiment: Inhibition of the growth of non-small-cell lung cancer (NCI-H522) cell line at 0.01 uM; type: functional; conditions: Homo sapiens
HCT-116 [8] = experiment: inhibition of the growth of colon cancer(HCT116) cell line; type: functional; conditions: Homo sapiens
NCI-H460 [9] = experiment: Inhibition of the growth of non-small-cell lung cancer (NCI-H460) cell line; type: functional; conditions: Homo sapiens
CAKI-1 [10] = experiment: Inhibition of the growth of renal cancer(CAKI-1) cell line; type: functional; conditions: Homo sapiens
MDA-N [11] = experiment: Inhibition of the growth of breast cancer(MDA-N) cell line; type: functional; conditions: Homo sapiens
Dihydrofolate reductase [12] = biological target: T2, Dihydrofolate reductase (Rattus norvegicus, UniProt Q920D2)
T2 sequence (Q920D2 whole entry): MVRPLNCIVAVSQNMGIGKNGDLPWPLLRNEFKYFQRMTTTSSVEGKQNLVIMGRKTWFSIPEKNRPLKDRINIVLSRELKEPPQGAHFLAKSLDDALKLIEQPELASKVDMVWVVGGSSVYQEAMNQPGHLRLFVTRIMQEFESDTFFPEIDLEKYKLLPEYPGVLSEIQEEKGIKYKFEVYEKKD
Description: Inhibitory activity against dihydrofolate reductase (DHFR) from rat liver

OVCAR-8 [13] = experiment: Inhibition of the growth of ovarian cancer(OVCAR-8) cell line; type: functional; conditions: Homo sapiens
DU-145 [14] = experiment: Inhibition of the growth of prostate cancer(DU-145) cell line at 0.01 uM; type: functional; conditions: Homo sapiens
UO-31 [15] = experiment: Inhibition of the growth of renal cancer(UO-31) cell line; type: functional; conditions: Homo sapiens
KM12 = experiment: inhibition of the growth of colon cancer(KM-12) cell line at 0.01 uM; type: functional; conditions: Homo sapiens
MDA-MB-435 [16] = experiment: Inhibition of the growth of breast cancer (MDA-MB-435) cell line; type: functional; conditions: Homo sapiens
A549 [17] = experiment: Inhibition of the growth of non-small-cell lung cancer (A549/ATCC) cell line at 0.01 uM; type: functional; conditions: Homo sapiens
SF-268 [18] = experiment: Inhibition of the growth of CNS cancer(SF-268) cell line at 0.01 uM; type: functional; conditions: Homo sapiens
SK-MEL-5 [19] = experiment: Inhibition of the growth of melanoma cancer (SK-MEL-5) cell line; type: functional; conditions: Homo sapiens
NCI/ADR-RES [20] = experiment: Inhibition of the growth of breast cancer (MCF7/ADR-RES) cell line at 0.01 uM; type: functional; conditions: Homo sapiens
NCI-H23 [21] = experiment: Inhibition of the growth of non-small-cell lung cancer (NCI-H23) cell line; type: functional; conditions: Homo sapiens
SNB-19 [22] = experiment: inhibition of the growth of CNS cancer(SNB-19) cell line; type: functional; conditions: Homo sapiens
OVCAR-8 [23] = experiment: Inhibition of the growth of ovarian cancer(OVCAR-8) cell line at 0.01 uM; type: functional; conditions: Homo sapiens
MDA-MB-435 [24] = experiment: Inhibition of the growth of breast cancer (MDA-MB-435) cell line at 0.01 uM; type: functional; conditions: Homo sapiens
MDA-N [25] = experiment: Inhibition of the growth of breast cancer(MDA-N) cell line at 0.01 uM; type: functional; conditions: Homo sapiens
RPMI-8226 [26] = experiment: Inhibition of the growth of leukemia (RPMI-8226) cell line; type: functional; conditions: Homo sapiens
IGROV-1 [27] = experiment: Inhibition of the growth of ovarian cancer(IGROVI) cell line at 0.01 uM; type: functional; conditions: Homo sapiens
SNB-19 [28] = experiment: Inhibition of the growth of CNS cancer(SNB-19) cell line at 0.01 uM; type: functional; conditions: Homo sapiens
SR [29] = experiment: Inhibition of the growth of leukemia(SR) cell line. value in parentheses is percent inhibition at 0.01 uM at 0.01 uM; type: functional; conditions: Homo sapiens
SF-295 [30] = experiment: Inhibition of the growth of CNS cancer(SF-295) cell line at 0.01 uM; type: functional; conditions: Homo sapiens
RPMI-8226 [31] = experiment: Inhibition of the growth of leukemia (RPMI-8226) cell line at 0.01 uM; type: functional; conditions: Homo sapiens
NCI-H460 [32] = experiment: inhibition of the growth of non-small-cell lung cancer (NCI-H460) cell line at 0.01 uM; type: functional; conditions: Homo sapiens
HCT-15 [33] = experiment: Inhibition of the growth of colon cancer(HCT-15) cell line. value in parentheses is percent inhibition at 0.01 uM; type: functional; conditions: Homo sapiens
CAKI-1 [34] = experiment: Inhibition of the growth of renal cancer(CAKI-1) cell line at 0.01 uM; type: functional; conditions: Homo sapiens
SF-268 [35] = experiment: inhibition of the growth of CNS cancer(SF-268) cell line; type: functional; conditions: Homo sapiens
NCI-H23 [36] = experiment: Inhibition of the growth of non-small-cell lung cancer (NCI-H23) cell line at 0.01 uM; type: functional; conditions: Homo sapiens
HCT-15 [37] = experiment: inhibition of the growth of colon cancer(HCT-15) cell line; type: functional; conditions: Homo sapiens
SF-539 = experiment: inhibition of the growth of CNS cancer(SF-539) cell line. value in parentheses is percent inhibition at 0.01 uM; type: functional; conditions: Homo sapiens
NCI-H522 [38] = experiment: inhibition of the growth of non-small-cell lung cancer (NCI-H522) cell line; type: functional; conditions: Homo sapiens
SF-295 [39] = experiment: inhibition of the growth of CNS cancer(SF-295) cell line; type: functional; conditions: Homo sapiens
A549 [40] = experiment: Inhibition of the growth of non-small-cell lung cancer (A549/ATCC) cell line; type: functional; conditions: Homo sapiens
UO-31 [41] = experiment: Inhibition of the growth of renal cancer(UO-31) cell line at 0.01 uM; type: functional; conditions: Homo sapiens
786-0 = experiment: Inhibition of the growth of renal cancer(786-0) cell line. value in parentheses is percent inhibition at 0.01 uM; type: functional; conditions: Homo sapiens
[42] = biological target: T3, Bifunctional dihydrofolate reductase-thymidylate synthase (Toxoplasma gondii, UniProt Q07422)
T3 sequence (Q07422 whole entry): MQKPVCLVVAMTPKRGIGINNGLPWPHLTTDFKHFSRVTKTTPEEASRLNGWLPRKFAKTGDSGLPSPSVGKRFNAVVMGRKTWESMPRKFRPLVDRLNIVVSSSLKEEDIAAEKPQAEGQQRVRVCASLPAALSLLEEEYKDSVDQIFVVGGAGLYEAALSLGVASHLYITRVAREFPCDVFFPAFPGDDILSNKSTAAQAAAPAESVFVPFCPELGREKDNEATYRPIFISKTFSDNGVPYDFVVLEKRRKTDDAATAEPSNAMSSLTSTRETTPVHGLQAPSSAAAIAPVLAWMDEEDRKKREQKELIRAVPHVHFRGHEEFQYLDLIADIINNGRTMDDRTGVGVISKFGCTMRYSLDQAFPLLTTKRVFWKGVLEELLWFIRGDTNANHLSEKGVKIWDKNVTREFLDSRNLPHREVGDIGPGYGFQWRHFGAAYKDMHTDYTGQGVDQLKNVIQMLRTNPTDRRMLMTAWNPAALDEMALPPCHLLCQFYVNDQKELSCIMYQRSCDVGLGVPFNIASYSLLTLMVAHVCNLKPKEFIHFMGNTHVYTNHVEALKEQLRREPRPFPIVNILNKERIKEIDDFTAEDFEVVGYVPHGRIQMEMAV
Description: Inhibitory activity against dihydrofolate reductase (DHFR) from Toxoplasma gondii

NCI/ADR-RES [43] = experiment: Inhibition of the growth of breast cancer (MCF7/ADR-RES) cell line; type: functional; conditions: Homo sapiens
IGROV-1 [44] = experiment: Inhibition of the growth of ovarian cancer(IGROVI) cell line; type: functional; conditions: Homo sapiens
HCT-116 [45] = experiment: Inhibition of the growth of colon cancer(HCT116) cell line at 0.01 uM; type: functional; conditions: Homo sapiens

- GI50 (DU-145 [1]): < 10 nM
- GI50 (MCF7): 60 nM
- pIC50 (Dihydrofolate reductase [5]): 6.66
- GI50 (NCI-H322M): 20 nM
- GI50 (MOLT-4): 20 nM
- GI50 (HCT-116 [8]): < 10 nM
- GI50 (NCI-H460 [9]): < 10 nM
- pIC50 (Dihydrofolate reductase [12]): 8.17
- GI50 (OVCAR-8 [13]): < 10 nM
- GI50 (MDA-MB-435 [16]): < 10 nM
- GI50 (SK-MEL-5 [19]): < 10 nM
- GI50 (NCI-H23 [21]): < 10 nM
- GI50 (RPMI-8226 [26]): < 10 nM
- GI50 (HCT-15 [37]): < 10 nM
- GI50 (NCI-H522 [38]): < 10 nM
- GI50 (A549 [40]): < 10 nM
- GI50 (786-0): 590 nM
Structure (SMILES): COc1ccc(N(C)c2ccc3nc(N)nc(N)c3n2)cc1
- inhibition at 0.01 µM (M14 [2]): 55%
- GI50 (SR [3]): < 10 nM
- inhibition at 0.01 µM (SK-MEL-5 [4]): 65%
- GI50 (M14 [6]): < 10 nM
- inhibition at 0.01 µM (NCI-H522 [7]): 53%
- GI50 (CAKI-1 [10]): < 10 nM
- GI50 (MDA-N [11]): < 10 nM
- inhibition at 0.01 µM (DU-145 [14]): 51%
- GI50 (UO-31 [15]): < 10 nM
- GI50 (KM12): 20 nM
- inhibition at 0.01 µM (A549 [17]): 67%
- inhibition at 0.01 µM (SF-268 [18]): 68%
- inhibition at 0.01 µM (NCI/ADR-RES [20]): 100%
- GI50 (SNB-19 [22]): < 10 nM
- inhibition at 0.01 µM (OVCAR-8 [23]): 90%
- inhibition at 0.01 µM (MDA-MB-435 [24]): 68%
- inhibition at 0.01 µM (MDA-N [25]): 66%
- inhibition at 0.01 µM (IGROV-1 [27]): 62%
- inhibition at 0.01 µM (SNB-19 [28]): 51%
- inhibition at 0.01 µM (SR [29]): 53%
- inhibition at 0.01 µM (SF-295 [30]): 62%
- inhibition at 0.01 µM (RPMI-8226 [31]): 59%
- inhibition at 0.01 µM (NCI-H460 [32]): 84%
- inhibition at 0.01 µM (HCT-15 [33]): 67%
- inhibition at 0.01 µM (CAKI-1 [34]): 59%
- GI50 (SF-268 [35]): < 10 nM
- inhibition at 0.01 µM (NCI-H23 [36]): 54%
- GI50 (SF-539): 30 nM
- GI50 (SF-295 [39]): < 10 nM
- inhibition at 0.01 µM (UO-31 [41]): 74%
- pIC50 [42]: 8.07
- GI50 (NCI/ADR-RES [43]): < 10 nM
- GI50 (IGROV-1 [44]): < 10 nM
- inhibition at 0.01 µM (HCT-116 [45]): 83%

Source: ChEMBL document CHEMBL1131172 (J Med Chem, 1998)
